Reference: paper PMC10378394 (Current Issues in Molecular Biology, 2023)

Columns and labels:
MC38 syngeneic tumor = assay: In vivo efficacy, syngeneic model; set-up: species or system C57BL/6 mice; conditions: 80 mg/kg po QD
Experimental: Human-derived colorectal cancer cell lines, LS513, HCT-116, and HT29, were subcutaneously transplanted into 6-week-old female BALB/c nude mice to establish tumor models. Additionally, the mouse cancer cell line MC38 was subcutaneously transplanted into 6-week-old female and C57BL/6 mice to induce tumor formation. […]. The treatments were administered orally once daily for 2 weeks based on the growth rate observed in the vehicle group. Tumor volume was evaluated three times a week using the formula Tumor volume (TV) = (tumor short diameter ^2 × tumor long diameter)/2. The body weight of the mice was measured three times a week to assess potential toxicity in vivo. […]

IL-10 = assay: Western blot of IL-10; assay type: in vivo, mouse; conditions: normalized to β-actin
CRAF = CRAF (Homo sapiens, UniProt P04049); assay: Eurofins kinase assay
ARAF = biological target: T1, ARAF (Homo sapiens, UniProt P10398); assay: Eurofins kinase assay
T1 sequence (P10398 1-606): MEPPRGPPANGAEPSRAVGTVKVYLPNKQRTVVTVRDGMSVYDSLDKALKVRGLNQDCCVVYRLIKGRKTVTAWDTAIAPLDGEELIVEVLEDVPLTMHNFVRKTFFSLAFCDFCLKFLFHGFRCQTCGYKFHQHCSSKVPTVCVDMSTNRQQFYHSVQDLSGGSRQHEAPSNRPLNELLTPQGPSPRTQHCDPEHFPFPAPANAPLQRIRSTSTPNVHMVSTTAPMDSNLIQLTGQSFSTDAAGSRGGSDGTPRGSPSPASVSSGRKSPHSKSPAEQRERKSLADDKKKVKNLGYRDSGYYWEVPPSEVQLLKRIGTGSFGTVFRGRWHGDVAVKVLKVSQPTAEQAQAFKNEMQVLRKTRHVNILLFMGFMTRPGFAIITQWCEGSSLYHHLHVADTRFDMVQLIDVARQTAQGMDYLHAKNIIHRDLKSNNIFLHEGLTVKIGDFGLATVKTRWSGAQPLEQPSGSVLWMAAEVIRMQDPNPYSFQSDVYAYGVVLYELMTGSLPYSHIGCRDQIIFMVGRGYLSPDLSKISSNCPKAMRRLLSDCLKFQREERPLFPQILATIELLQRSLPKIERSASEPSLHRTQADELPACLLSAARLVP

Yes(h) = Yes(h) (Homo sapiens, UniProt P07947); assay: Eurofins kinase assay
p70S6K(h) = p70S6K(h) (Homo sapiens, UniProt P23443); assay: Eurofins kinase assay
ATR/ATRIP(h) = ATR/ATRIP(h) (Homo sapiens, UniProt Q13535); assay: Eurofins kinase assay
Flt3(h) = Flt3(h) (Homo sapiens, UniProt P36888); assay: Eurofins kinase assay
PKCη(h) = PKCη(h) (Homo sapiens, UniProt P24723); assay: Eurofins kinase assay
PKD2(h) = PKD2(h) (Homo sapiens, UniProt Q9BZL6); assay: Eurofins kinase assay
PKBγ(h) = PKBγ(h) (Homo sapiens, UniProt Q9Y243); assay: Eurofins kinase assay
PKBβ(h) = PKBβ(h) (Homo sapiens, UniProt P31751); assay: Eurofins kinase assay
PKCγ(h) = PKCγ(h) (Homo sapiens, UniProt P05129); assay: Eurofins kinase assay
PKCζ(h) = PKCζ(h) (Homo sapiens, UniProt Q05513); assay: Eurofins kinase assay
CHK2(h) = CHK2(h) (Homo sapiens, UniProt O96017); assay: Eurofins kinase assay
PDK1(h) = PDK1(h) (Homo sapiens, UniProt O15530); assay: Eurofins kinase assay
Bmx(h) = Bmx(h) (Homo sapiens, UniProt P51813); assay: Eurofins kinase assay
PRK2(h) = PRK2(h) (Homo sapiens, UniProt Q16513); assay: Eurofins kinase assay
EGFR(h) = EGFR(h) (Homo sapiens, UniProt P00533); assay: Eurofins kinase assay
GSK3β(h) = GSK3β(h) (Homo sapiens, UniProt P49841); assay: Eurofins kinase assay
EphB4(h) = EphB4(h) (Homo sapiens, UniProt P54760); assay: Eurofins kinase assay
CDK2/cyclinA(h) = CDK2/cyclinA(h) (Homo sapiens, UniProt P24941); assay: Eurofins kinase assay
EphB2(h) = EphB2(h) (Homo sapiens, UniProt P29323); assay: Eurofins kinase assay
CDK1/cyclinB(h) = CDK1/cyclinB(h) (Homo sapiens, UniProt P06493); assay: Eurofins kinase assay
Ros(h) = Ros(h) (Homo sapiens, UniProt P08922); assay: Eurofins kinase assay
PKCδ(h) = PKCδ(h) (Homo sapiens, UniProt Q05655); assay: Eurofins kinase assay
Syk(h) = Syk(h) (Homo sapiens, UniProt P43405); assay: Eurofins kinase assay
[1] = tested on: KRAS and BRAF mutant cancer cells (HCT116, LS513, SW620, HT29); assay: Cell growth assay, panel of cell lines; conditions: read-out: IC50 values, cell growth
Experimental: (§1) To assess cell viability, the CellTiter-Glo Luminescent Cell Viability Assay Reagent (Promega, Fitchburg, WI, USA) was added to each well. The assay measured ATP levels as an indicator of cell viability. All data points were normalized to the control samples treated with dimethyl sulfoxide when determining IC50 values. Statistical calculations and data analysis, including IC50 determination, were performed using GraphPad Prism software.

LS513 (KRAS G12D) = assay: Cell proliferation assay (CellTiter-Glo); conditions: Homo sapiens, LS-513, 72 h
Experimental: as §1

Sequence of PKCζ(h) (Q05513 whole entry): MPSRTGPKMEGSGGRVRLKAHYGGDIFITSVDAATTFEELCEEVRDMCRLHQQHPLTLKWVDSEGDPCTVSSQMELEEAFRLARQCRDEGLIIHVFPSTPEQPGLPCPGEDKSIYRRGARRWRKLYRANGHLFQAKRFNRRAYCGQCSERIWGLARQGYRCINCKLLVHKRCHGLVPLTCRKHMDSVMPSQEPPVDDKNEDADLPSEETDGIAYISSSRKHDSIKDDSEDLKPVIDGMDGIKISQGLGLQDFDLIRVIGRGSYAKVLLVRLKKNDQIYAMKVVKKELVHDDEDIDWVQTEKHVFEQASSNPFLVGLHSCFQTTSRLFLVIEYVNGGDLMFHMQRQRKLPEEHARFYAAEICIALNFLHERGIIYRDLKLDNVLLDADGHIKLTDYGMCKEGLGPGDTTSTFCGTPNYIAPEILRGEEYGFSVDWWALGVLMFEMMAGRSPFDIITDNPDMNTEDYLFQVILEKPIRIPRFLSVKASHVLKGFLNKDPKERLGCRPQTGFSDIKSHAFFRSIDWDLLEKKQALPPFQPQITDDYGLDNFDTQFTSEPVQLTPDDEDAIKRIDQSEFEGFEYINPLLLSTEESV
Sequence of PRK2(h) (Q16513 whole entry): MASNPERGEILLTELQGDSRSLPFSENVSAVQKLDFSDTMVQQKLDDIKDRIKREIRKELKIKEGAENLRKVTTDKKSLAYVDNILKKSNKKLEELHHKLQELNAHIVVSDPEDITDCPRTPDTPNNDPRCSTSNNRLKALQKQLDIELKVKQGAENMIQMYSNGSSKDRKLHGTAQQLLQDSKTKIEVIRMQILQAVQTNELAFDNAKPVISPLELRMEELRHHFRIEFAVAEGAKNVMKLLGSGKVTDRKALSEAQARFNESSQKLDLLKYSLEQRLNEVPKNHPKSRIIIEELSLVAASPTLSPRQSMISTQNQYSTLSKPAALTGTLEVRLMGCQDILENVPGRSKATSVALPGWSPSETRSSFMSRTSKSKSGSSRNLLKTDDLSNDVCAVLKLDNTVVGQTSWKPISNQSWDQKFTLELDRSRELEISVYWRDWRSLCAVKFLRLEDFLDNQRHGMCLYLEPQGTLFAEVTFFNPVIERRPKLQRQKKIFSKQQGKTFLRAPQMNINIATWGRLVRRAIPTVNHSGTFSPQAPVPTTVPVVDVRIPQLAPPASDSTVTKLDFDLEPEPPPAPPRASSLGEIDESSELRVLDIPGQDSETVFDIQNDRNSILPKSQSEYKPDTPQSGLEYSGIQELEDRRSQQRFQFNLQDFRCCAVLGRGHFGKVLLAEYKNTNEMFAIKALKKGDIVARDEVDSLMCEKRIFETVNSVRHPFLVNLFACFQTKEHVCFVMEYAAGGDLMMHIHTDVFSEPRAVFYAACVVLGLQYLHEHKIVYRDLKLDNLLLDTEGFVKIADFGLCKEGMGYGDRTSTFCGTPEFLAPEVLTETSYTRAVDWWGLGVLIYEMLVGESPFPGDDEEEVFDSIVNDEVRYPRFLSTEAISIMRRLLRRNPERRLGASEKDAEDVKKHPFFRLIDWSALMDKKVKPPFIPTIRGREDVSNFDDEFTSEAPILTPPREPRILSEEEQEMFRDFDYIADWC
Sequence of CRAF (P04049 whole entry): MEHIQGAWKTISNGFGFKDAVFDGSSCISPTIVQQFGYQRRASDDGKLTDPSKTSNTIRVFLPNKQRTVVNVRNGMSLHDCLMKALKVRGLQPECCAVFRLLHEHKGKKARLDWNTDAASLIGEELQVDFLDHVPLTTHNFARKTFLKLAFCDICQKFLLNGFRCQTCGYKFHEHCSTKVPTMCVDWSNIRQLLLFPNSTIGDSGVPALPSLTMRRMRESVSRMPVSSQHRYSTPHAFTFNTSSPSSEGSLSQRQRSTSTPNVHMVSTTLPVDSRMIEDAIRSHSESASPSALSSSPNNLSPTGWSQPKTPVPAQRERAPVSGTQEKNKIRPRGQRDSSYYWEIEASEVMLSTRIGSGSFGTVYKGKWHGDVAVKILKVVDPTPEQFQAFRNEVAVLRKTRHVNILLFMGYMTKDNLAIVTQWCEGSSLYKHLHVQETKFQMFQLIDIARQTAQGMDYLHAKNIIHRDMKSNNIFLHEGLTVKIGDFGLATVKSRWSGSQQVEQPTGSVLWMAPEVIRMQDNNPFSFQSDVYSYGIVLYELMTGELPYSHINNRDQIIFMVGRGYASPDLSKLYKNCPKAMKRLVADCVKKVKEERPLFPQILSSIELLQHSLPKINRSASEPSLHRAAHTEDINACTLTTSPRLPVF
Sequence of PKCη(h) (P24723 whole entry): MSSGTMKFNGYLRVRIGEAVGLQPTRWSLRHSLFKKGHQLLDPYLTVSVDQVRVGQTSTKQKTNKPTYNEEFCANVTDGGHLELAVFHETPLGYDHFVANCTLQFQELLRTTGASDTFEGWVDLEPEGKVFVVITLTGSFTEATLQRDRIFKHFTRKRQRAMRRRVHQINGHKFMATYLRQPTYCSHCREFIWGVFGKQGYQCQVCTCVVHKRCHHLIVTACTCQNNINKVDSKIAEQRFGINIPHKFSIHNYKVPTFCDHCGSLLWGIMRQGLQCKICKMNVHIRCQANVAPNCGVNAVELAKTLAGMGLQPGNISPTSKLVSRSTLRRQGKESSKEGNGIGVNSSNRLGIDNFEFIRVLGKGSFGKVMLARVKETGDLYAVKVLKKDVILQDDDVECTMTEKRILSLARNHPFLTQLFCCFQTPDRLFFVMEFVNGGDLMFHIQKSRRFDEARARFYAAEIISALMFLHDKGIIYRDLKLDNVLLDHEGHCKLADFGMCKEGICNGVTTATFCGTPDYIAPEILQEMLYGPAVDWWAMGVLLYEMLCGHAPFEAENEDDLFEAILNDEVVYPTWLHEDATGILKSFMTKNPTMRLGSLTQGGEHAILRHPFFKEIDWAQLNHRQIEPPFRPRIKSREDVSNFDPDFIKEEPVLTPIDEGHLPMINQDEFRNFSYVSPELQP
Sequence of PKD2(h) (Q9BZL6 whole entry): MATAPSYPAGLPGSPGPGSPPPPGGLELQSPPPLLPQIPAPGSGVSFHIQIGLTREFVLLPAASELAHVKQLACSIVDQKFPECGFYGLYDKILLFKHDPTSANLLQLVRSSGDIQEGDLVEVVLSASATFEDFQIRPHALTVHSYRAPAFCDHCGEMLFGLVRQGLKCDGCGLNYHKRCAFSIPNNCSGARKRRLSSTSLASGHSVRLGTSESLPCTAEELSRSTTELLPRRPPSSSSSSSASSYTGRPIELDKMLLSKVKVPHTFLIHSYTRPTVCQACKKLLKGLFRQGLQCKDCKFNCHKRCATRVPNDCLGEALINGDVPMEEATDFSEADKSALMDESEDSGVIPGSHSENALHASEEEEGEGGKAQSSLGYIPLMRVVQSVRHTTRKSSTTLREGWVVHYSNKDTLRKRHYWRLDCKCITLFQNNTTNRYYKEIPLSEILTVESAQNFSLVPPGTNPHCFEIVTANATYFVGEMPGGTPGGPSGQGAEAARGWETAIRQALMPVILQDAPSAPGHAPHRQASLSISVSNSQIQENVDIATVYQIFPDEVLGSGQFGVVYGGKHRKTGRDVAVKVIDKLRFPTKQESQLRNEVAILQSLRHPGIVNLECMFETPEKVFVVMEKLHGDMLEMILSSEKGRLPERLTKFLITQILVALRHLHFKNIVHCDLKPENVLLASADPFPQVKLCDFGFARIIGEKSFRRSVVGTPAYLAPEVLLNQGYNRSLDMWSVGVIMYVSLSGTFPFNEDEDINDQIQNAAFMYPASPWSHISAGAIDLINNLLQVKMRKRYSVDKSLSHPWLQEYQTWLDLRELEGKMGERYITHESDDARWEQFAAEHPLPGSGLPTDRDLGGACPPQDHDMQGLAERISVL
Sequence of PDK1(h) (O15530 whole entry): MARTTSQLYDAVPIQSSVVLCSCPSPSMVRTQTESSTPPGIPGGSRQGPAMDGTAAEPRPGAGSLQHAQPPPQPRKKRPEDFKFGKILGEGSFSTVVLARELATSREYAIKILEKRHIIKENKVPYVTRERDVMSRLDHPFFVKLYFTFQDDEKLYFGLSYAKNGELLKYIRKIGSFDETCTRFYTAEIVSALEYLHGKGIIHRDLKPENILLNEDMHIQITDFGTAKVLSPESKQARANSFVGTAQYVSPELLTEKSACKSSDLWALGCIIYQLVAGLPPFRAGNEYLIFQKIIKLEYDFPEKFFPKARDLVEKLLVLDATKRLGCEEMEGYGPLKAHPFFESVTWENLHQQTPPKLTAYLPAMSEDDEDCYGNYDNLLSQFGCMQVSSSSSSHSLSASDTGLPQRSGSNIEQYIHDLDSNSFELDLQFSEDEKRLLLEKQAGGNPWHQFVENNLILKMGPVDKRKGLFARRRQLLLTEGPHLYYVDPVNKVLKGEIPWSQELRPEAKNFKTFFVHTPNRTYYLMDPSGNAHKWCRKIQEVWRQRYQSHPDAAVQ

**Q.** How did the TGI (MC38 syngeneic tumor; 14 days) turn out when O=C(Nc1cc(Nc2ncccc2-c2ncnc3[nH]cnc23)ccc1F)c1cc(C(F)(F)F)cc(C(F)(F)F)c1 [SJ-C1044, N-(5-(3-(9H-purin-6-yl)pyridin-2-ylamino)-2-fluorophenyl)-3,5-bis(trifluoromethyl)benzamide] was run?
**A.** 88%

**Q.** What about the “MC38 tumor growth in vivo” value (MC38 syngeneic tumor; compared to the control) of the same compound?
**A.** completely inhibited

**Q.** What about the IL-10 protein expression (IL-10) of the same compound?
**A.** 33 % CTL

**Q.** And the inhibition at 10 µM (CRAF)?
**A.** 86%

**Q.** And the IC50 (ARAF)?
**A.** > 10000 nM

**Q.** And the inhibition at 10 µM (ARAF; Table S1 no. 8)?
**A.** 44%

**Q.** What about the inhibition at 10 µM (ARAF; second A-Raf(h) entry, Table S1 no. 62) of the same compound?
**A.** -6%

**Q.** What about the inhibition at 10 µM (Yes(h)) of the same compound?
**A.** 17%

**Q.** And the inhibition at 10 µM (p70S6K(h))?
**A.** 8%

**Q.** And the inhibition at 10 µM (ATR/ATRIP(h))?
**A.** 8%

**Q.** And the inhibition at 10 µM (Flt3(h))?
**A.** 3%

**Q.** And the inhibition at 10 µM (PKCη(h))?
**A.** 3%

**Q.** And the inhibition at 10 µM (PKD2(h))?
**A.** 3%

**Q.** What about the inhibition at 10 µM (PKBγ(h)) of the same compound?
**A.** 2%

**Q.** What about the inhibition at 10 µM (PKBβ(h)) of the same compound?
**A.** 1%

**Q.** What about the inhibition at 10 µM (PKCγ(h)) of the same compound?
**A.** 1%

**Q.** And the inhibition at 10 µM (PKCζ(h))?
**A.** 1%

**Q.** And the inhibition at 10 µM (CHK2(h))?
**A.** 0%

**Q.** And the inhibition at 10 µM (PDK1(h))?
**A.** 0%

**Q.** And the inhibition at 10 µM (Bmx(h))?
**A.** -1%

**Q.** And the inhibition at 10 µM (PRK2(h))?
**A.** -2%

**Q.** And the inhibition at 10 µM (EGFR(h))?
**A.** -4%

**Q.** What about the inhibition at 10 µM (GSK3β(h)) of the same compound?
**A.** -5%

**Q.** What about the inhibition at 10 µM (EphB4(h)) of the same compound?
**A.** -6%

**Q.** And the inhibition at 10 µM (CDK2/cyclinA(h))?
**A.** -8%

**Q.** And the inhibition at 10 µM (EphB2(h))?
**A.** -8%

**Q.** What about the inhibition at 10 µM (CDK1/cyclinB(h)) of the same compound?
**A.** -10%

**Q.** And the inhibition at 10 µM (Ros(h))?
**A.** -12%

**Q.** And the inhibition at 10 µM (PKCδ(h))?
**A.** -14%

**Q.** What about the inhibition at 10 µM (Syk(h)) of the same compound?
**A.** -26%

**Q.** What about the IC50 [1] of the same compound?
**A.** 160 to 628 nM

**Q.** And the GI50 (LS513 (KRAS G12D))?
**A.** 290 nM
